Test results taken from patent US20240316038A1, “APOL1 INHIBITORS AND METHODS OF USE” (Maze Therapeutics, Inc., priority 2021, published 2024).
pEC50: −log10 of the molar value.

Experiments:
APOL1 G2 [1] = molecular target: T1, APOL1 G2 (Homo sapiens, UniProt O14791, DEL388-389); assay: Rescue of HEK293 cell death caused by overexpression of APOL1 (CellTiter-Glo luminescence), HEK293/T-REx APOL1 G2/clone #2; assay type: cell-based; conditions: reversal of cell death caused by overexpression of APOL1; geometric mean of at least 2 assay runs, † = single assay run (technical duplicate)
T1 construct: expressed in transfected cells; host or cells: HEK293 T-REx clonal lines: HEK T-REx/GCaMP6f/APOL1 G2 K6.3 in A1, HEK293/T-REx APOL1 G2/clone #2 in A2
T1 sequence (O14791 with tags, fused parts or gaps DEL388-389): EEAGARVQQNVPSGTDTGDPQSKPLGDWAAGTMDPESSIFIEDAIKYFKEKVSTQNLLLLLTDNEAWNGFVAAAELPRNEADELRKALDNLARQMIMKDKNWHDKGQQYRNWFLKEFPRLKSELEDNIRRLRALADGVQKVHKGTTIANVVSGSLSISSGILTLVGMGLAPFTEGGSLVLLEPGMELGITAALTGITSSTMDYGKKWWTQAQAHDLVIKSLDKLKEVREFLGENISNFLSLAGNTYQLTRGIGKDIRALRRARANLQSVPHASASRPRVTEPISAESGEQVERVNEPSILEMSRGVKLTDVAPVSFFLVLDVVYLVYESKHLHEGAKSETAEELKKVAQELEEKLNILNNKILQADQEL
Description: A HEK293 clonal cell line overexpressing APOL1 G2 (HEK293/T-REx APOL1 G2/clone #2) was maintained in 1×DMEM-GlutaMax (Gibco, 10569-010) media with 10% tetracycline-free FBS (Takara Bio USA, 631101), 5 μg/mL Blasticidin (Gibco, A1113903), and 100 μg/mL Zeocin (Invitrogen, R25001) in T75 flasks. In preparation for the assay, this media was aspirated and 2 mL of prewarmed TrypLE Express (Gibco, 12605-010) was added to a flask to detach cells. The flask was then incubated (humidified, 37° C. with 5% CO2) for 3-5 minutes. Afterwards, 8 mL of prewarmed cell assay media (lx DMEM-GlutaMax media with 10% tetracycline-free FBS) was added to the trypsinized cells. The suspension was gently mixed, and cells were counted using a Countess Cell Counting Chamber (Invitrogen). The suspension was diluted using cell assay media to generate a working stock solution (166,667 cells/mL). Using a MultiDrop Combi (Thermo Electron Corp), 30 μL (final cell density=5,000 cells/well) of the working stock solution was dispensed into each well of white 384-well assay ready plates (Nunc™, 164610) containing 6 ng/mL doxycycline, to induce APOL1 expression, and compound. All compounds were plated in a duplicate 8-point dilution series that consisted of 3-fold stepwise dilutions (0.5% DMSO final). Assay plates were incubated (humidified, 37° C. with 5% CO2) for 17 hours. After the incubation, the plates were equilibrated at room temperature for 1 hour. Next, 15 μl of CellTiter-Glo® reagent (Promega, G7570) was added to each well using a MultiDrop Combi. Plates were placed on an orbital shaker (500 rpm) for 5 minutes to induce cell lysis and then incubated at room temperature for 10 minutes. Luminescence was measured on an Envision plate reader. Collaborative Drug Discovery software was utilized for graphing data. Plots were generated using a four parameter logistic curve fit.
Table B2 below provides the results from this experiment. Unless otherwise specified, EC50 values are reported as the geometric mean of at least 2 assay runs on separate days. Each run represents the average of a technical replicate, where each compound was assayed twice in the same plate. A superscript t symbol indicates a value from the average of a technical replicate from a single assay run, where each compound was assayed twice in the same plate. Compounds in Table B2 are referred to by the corresponding Compound Number in Table 1, which is also referred to in the synthetic examples. When one or more of the numbered compounds are identified by stereochemistry (for example, (R)- or (S)—), the specific stereoisomer for which data is provided in Table B2 may be identified by the elution order of such compound as described in the synthetic examples. To illustrate, Compound 2 is the first-eluting enantiomer of step 4 of Example 1 and Compound 3 is the second-eluting enantiomer of step 4 of Example 1. Further, by way of illustration, Compound 27 is the first-eluting enantiomeric mixture in step 4 of Example 7 and Compound 28 is the second-eluting enantiomeric mixture in step 4 of Example 7. Then, Compound 27 is separated into Compound 29 (the first-eluting enantiomer) and Compound 30 (the second-eluting enantiomer) in Example 8, and Compound 28 is separated into Compound 31 (the first-eluting enantiomer) and Compound 32 (the second-eluting enantiomer) in Example 8. Absolute stereochemistry of such compounds may be identified by methods known in the art.
Rescue EC50 values reported in Table B2 below represent the half-maximal effective concentration for reversal of cell death caused by overexpression of APOL1.

APOL1 G2 [2] = molecular target: T1, APOL1 G2; assay: APOL1 calcium transport inhibition assay (GCaMP6f calcium influx, FLIPR) in HEK T-REx/GCaMP6f/APOL1 G2 K6.3 cells; assay type: cell-based; conditions: inhibition of APOL1-mediated calcium influx; geometric mean of at least 2 assay runs, † = single assay run (technical duplicate)
Description: A HEK293 clonal cell line was generated to stably express GCaMP6f, a genetically encoded calcium indicator, and inducibly express APOL1 G2 (HEK T-REx/GCaMP6f/APOL1 G2 K6.3). Cells were maintained in the following standard complete medium: DMEM with 4.5 g/L glucose and sodium pyruvate (BioWhittaker, Lonza, BE12-614F), supplemented with 10% FBS Performance Plus (Gibco, 16000044), 1% penicillin-streptomycin (BioWhittaker, DE17-602E), 2 mM ultraglutamine-1 (BioWhittaker cat. BE 17-605/U1), 50 μg/mL Zeocin (InvivoGen, ant-zn), 2.5 μg/mL Blasticidin (InvivoGen, ant-bl-5), and 25 μg/mL Hygromycin (InvivoGen, ant-hg). Standard propagation conditions consisted of plating 9×10^6, 4×10^6, 2×10^6 cells in a T225 flasks to be processed after 2, 3, or 4 days, respectively.
A source plate was generated containing 20 serially diluted compounds in DMSO (duplicate 8-point dose response). Next, 0.8 μL of compounds were transferred from the source plate to a destination plate prefilled with 79.2 μL of Ca^2+ free Tyrode's buffer (130 mM NaCl, 5 mM KCl, 1 mM MgCl2, 5 mM NaHCO3, 20 mM HEPES at pH 7.4). The destination plate was placed on a plate shaker (5 seconds at 2000 rpm) to mix. […] All transfer and mixing steps were conducted with an CyBi®-Well dispenser.
Cells were split by gently washing with DPBS (Euroclone, ECB4004L), followed by a 5-minute incubation (humidified, 37° C. with 5% CO2) with trypsin-EDTA solution (Euroclone, ECB3052D). Detached cells were diluted with standard complete medium without selective agents, counted, and plated in a 384 MTP microplate (GR4332CPL, Twin Helix) (10,000 cells/well in 25 μl/well) using a MATRIX WellMate dispenser. Plates were placed into a humidified incubator (37° C. with 5% CO2) overnight. The following day, 20 μL of doxycycline (Sigma, D9891) at 20 ng/mL in standard complete medium was added to cells with a CyBi @Drop dispenser to induce APOL1 G2 expression. After a 6-hour incubation (humidified, 37° C. with 5% CO2), cells were washed 3 times with Ca^2+ free Tyrode's Buffer (130 mM NaCl, 5 mM KCl, 1 mM MgCl2, 5 mM NaHCO3, 20 mM HEPES at pH 7.4) using a BIOTEK Microplate washer, such that 10 μL of buffer remained in each well after the final wash. Assay plates were then stored at room temperature for 10 minutes. Next, 10 μL of diluted compounds were transferred to the assay plate from the 2× compound plate using a CyBi®-Well dispenser. Compound incubation was then carried out at room temperature for 10 minutes. The assay plate was transferred to the […] and 20 μL of 10 mM Ca^2+ (final concentration=5 mM) Tyrode's buffer was injected.
Table B1 below summarizes the data from this experiment. Unless otherwise specified, AC50 and values are reported as the geometric mean of at least 2 assay runs on separate days. Each run represents the average of a technical replicate, where each compound was assayed twice in the same plate. A superscript † symbol indicates a value from the average of a technical replicate from a single assay run, where each compound was assayed twice in the same plate.
The AC50 values in Table B1 below reflect the compound's ability to prevent calcium influx by inhibiting APOL1. […] Compounds in Table B1 are referred to by the corresponding Compound Number in Table 1, which is also referred to in the synthetic examples. When one or more of the numbered compounds are identified by stereochemistry (for example, (R)- or (S)—), the specific stereoisomer for which data is provided in Table B1 may be identified by the elution order of such compound as described in the synthetic examples. To illustrate, Compound 2 is the first-eluting enantiomer of step 4 of Example 1 and Compound 3 is the second-eluting enantiomer of step 4 of Example 1. Further, by way of illustration, Compound 27 is the first-eluting enantiomeric mixture in step 4 of Example 7 and Compound 28 is the second-eluting enantiomeric mixture in step 4 of Example 7. […]

| SMILES | AC50 (APOL1 G2 [2]) [nM] | pEC50 (APOL1 G2 [1]) |
| --- | --- | --- |
| C[C@@H]1CN(CCc2cc(Cl)cc(C#N)c2)C[C@H]1COc1ccc(S(=O)(=O)CCS(C)(=O)=O)cc1 [Compound 108, 3-chloro-5-{2-[(3S,4S)-3-{[4-(2-methanesulfonyl-ethanesulfonyl)phenoxy]methyl}-4-methyl-pyrrolidin-1-yl]ethyl}benzonitrile] | 144 | 7.30 |
| COC(CN1CCC[C@H](COc2ccc(S(C)(=O)=O)cc2)C1)c1cccc(Cl)c1 (single isomer, unassigned) [Compound 23, (S)-1-((R)-2-(3-chlorophenyl)-2-methoxyethyl)-3-((4-(methylsulfonyl)phenoxy)methyl)piperidine or (S)-1-((S)-2-(3-chlorophenyl)-2-methoxyethyl)-3-((4-(methylsulfonyl)phenoxy)methyl)piperidine] | 640 | 6.17 |
| CC1CC(COc2ccc(S(C)(=O)=O)cc2)CN1CCc1cc(Cl)cc(C#N)c1 (single isomer, unassigned) [Compound 202, rac-trans or cis-3-chloro-5-{2-[4-[(4-methanesulfonylphenoxy)methyl]-2-methylpyrrolidin-1-yl]ethyl}benzonitrile] | 860 | 7.05 |
| C[C@@H]1C[C@H](COc2ccc(S(=O)(=O)C3CNC3)cc2)CN1CCc1cccc(C#N)c1 [Compound 156, 3-{2-[(2R,4S)-4-{[4-(azetidine-3-sulfonyl)phenoxy]methyl}-2-methylpyrrolidin-1-yl]ethyl}benzonitrile] | 311 | 6.75 |
| CS(=O)(=O)c1ccc(OC[C@@H]2CN(CCc3cc(C#N)cc(C(F)(F)F)c3)CCN2)cc1 [Compound 193, 3-{2-[(3S)-3-[(4-methanesulfonylphenoxy)methyl]piperazin-1-yl]ethyl}-5-(trifluoromethyl)benzonitrile] | 1450 | 6.11 |
| CC(CN1C[C@@H](COc2ccc(S(C)(=O)=O)cc2)[C@H](C)C1)c1cc(Cl)cc(C#N)c1 (single isomer, unassigned) [Compound 147, 3-chloro-5-[(2R or 2S)-1-[(3S, 4S)-3-[(4-meth-anesulfonylphen-oxy)methyl]-4-methylpyrroli-din-1-yl]propan-2-yl]benzonitrile] | 1110 | 6.21 |
| C[C@@H]1CN(CCc2cc(Cl)cc(C#N)c2)C[C@H]1COc1ccc(S(=O)(=O)CCO)cc1 [Compound 174, 3-chloro-5-{2-[(3S,4S)-3-{[4-(2-hydroxyethanesul-fonyl)phenoxy]meth-yl}-4-methylpyrrolidin-1-yl]ethyl}benzonitrile] | 157 | 7.44 |

Continued, in another order:

| AC50 (APOL1 G2 [2]) [nM] | SMILES | pEC50 (APOL1 G2 [1]) |
| --- | --- | --- |
| 98 | C[C@H]1CN(CCc2cccc(Cl)c2)C[C@@H]1COc1ccc(S(C)(=O)=O)cc1 (single isomer, unassigned) [Compound 154, (3R,4R or 3S, 4S)-1-[2-(3-chlorophenyl)-ethyl]-3-[(4-methanesulfon-ylphenoxy)meth-yl]-4-methyl-pyrrolidine] | 6.78 |
| 991 | COC1CCN(CCc2cccc(Cl)c2)CC1COc1ccc(S(C)(=O)=O)cc1 (single isomer, unassigned) [Compound 34, rac-cis or trans-1-(3-chlorophenethyl)-4-methoxy-3-((4-(methylsulfonyl)phenoxy)methyl)piperidine] | 6.11 |
| 623 | CS(=O)(=O)c1ccc(OC[C@@H]2CCCN(CC(O)c3cccc(Cl)c3)C2)cc1 (single isomer, unassigned) [Compound 21, (R) or (S)-1-(3-chlorophenyl)-2-((R)-3-((4-(methylsulfonyl)phenoxy)methyl)piperidin-1-yl)ethanol] | 5.99 |
| 1320 | CN(c1ccc(OC[C@@H]2CCN(CCc3cccc(Cl)c3)C2)cc1)S(C)(=O)=O [Compound 50, (R)-N-(4-((1-(3-chlorophenethyl)pyrrolidin-3-yl)methoxy)phenyl)-N-methylmethanesulfonamide] | 5.69 |
